In one series the target is T1, human TLR4 (Homo sapiens, UniProt O00206+Q9Y6Y9).
T1 construct: host or cells: HEK-Blue hTLR4 (HEK293)
As to the kind of experiment: Inhibition of LPS-stimulated TLR4 activation in HEK293-Blue hTLR4 cells (SEAP reporter). Format: cell-based. The note with it: LPS 100 ng/mL, 15 min pre-incubation, 16 h, serum-free DMEM. The text has this:
Synthetic monosaccharides were screened for their capacity to activate or inhibit LPS-stimulated TLR4 activation in HEK293-Blue hTLR4 cells. HEK293-Blue hTLR4 cells are HEK cells transfected in order to express the human receptors involved in LPS detection process (TLR4, MD-2 and membrane-bound CD14) and an inducible SEAP (secreted embryonic alkaline phosphatase) reporter gene placed under the control of NF-kB and AP-1-transcription factors. Activation of the MyD88-dependent TLR4 pathway promotes the production and secretion of SEAP in the cell culture media, which can be easily quantified.
SEAP levels in cell culture media were quantified after 16 hours as indicator of TLR4 activation. Data were normalized to stimulation with LPS alone and fitted to a sigmoidal 4 parameter logistic equation to obtain dose-effect curves (left panel). […] Briefly, cells were cultured in DMEM high glucose medium supplemented with 10% fetal bovine serum (FBS), 2 mM glutamine, antibiotics and 1 × HEK-Blue Selection (InvivoGen). Cells were detached using a cell scraper, counted and seeded in a 96-well multiwell plate at a density of 4 × 10^4 cells per well. […] For the antagonism evaluation, cells were stimulated with LPS (100 ng/mL, E. coli O55:B5, Sigma-Aldrich) after compounds pre-treatment and incubated for 16 hours as above. The SEAP-containing supernatants were collected and incubated with para-nitrophenyl phosphate (pNPP) for 2−4 h in the dark at room temperature. The wells optical density was determined using a microplate reader (labtech LT-4000) set to 405 nm.

The next series deals with T2, human MD-2 (hMD-2) (Homo sapiens, UniProt Q9Y6Y9).
T2 construct: made in house; host or cells: Pichia pastoris
T2 sequence (Q9Y6Y9 19-160): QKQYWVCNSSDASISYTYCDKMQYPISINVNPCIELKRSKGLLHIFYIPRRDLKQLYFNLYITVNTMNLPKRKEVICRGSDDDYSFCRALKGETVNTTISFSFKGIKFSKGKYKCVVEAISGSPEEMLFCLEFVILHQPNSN
As to the kind of experiment: Surface plasmon resonance (SPR) on immobilized hMD-2. Particulars: 1:1 Langmuir binding model, 25 °C. Here is the method:
SPR experimental curve optimal fitting was obtained by assuming 1:1 ligand/MD-2 binding stoichiometry.
The binding affinity of the compounds to recombinant hMD-2 was determined using a Biacore X100 with an NTA sensor chip (Biacore, GE Healthcare, Uppsala, Sweden). Briefly, 0.5 μM hMD-2 (in 50 mM TRIS, 150 mM NaCl, 0.5% Tween 20, pH 7.5) was immobilized onto the sensor chip previously activated with 1-min. pulse of 10 mM NiSO4. First flow cell was used as a reference surface to control non-specific binding. Both flow cells were injected with the analyte (in PBS, 5% DMSO, 5% EtOH, pH 7.5) at a flow rate of 10 μL/min at 25 °C in increasing concentrations. The data were analyzed with Biacore Evaluation software. KD values were calculated by global fitting of the equilibrium binding responses from various concentrations of analytes using a 1:1 Langmuir binding model.

For series [1], the system named is C57BL/6 mice. The series can be described thus: LPS-induced serum TNFα in mice, compound i.p. The note with it: 200 µg i.p., LPS 30 min later, serum after 4 h. Format: in vivo, mouse. Here is the method: To further investigate whether carboxylate-based lipid A mimetics are able to inhibit LPS-induced signaling in vivo, we injected C57BL/6 mice i.p. with 200 µg of compound FP13 followed by the LPS injection 30 min later. […] The reason for this was unclear and we hypothesized poor distribution and absorption of the compound upon i.p. injection.
C57BL/6 mice were injected i.p. with 200 µg FP13. 30 min later, the mice were i.p. injected with 150 µg of Salmonella enterica LPS, or vehicle and PBS as controls. Mice were sacrificed 4 h later and serum was collected. Serum TNF concentration was determined by Luminex-based Bio-Plex Multiplex system. Error bars represent the standard deviation of the mean.

Series [2] concerns C57BL/6 mice. The series can be described thus: LPS-induced lung neutrophilia in mice, intratracheal administration. In kind it is in vivo, mouse. The note with it: 45 µg i.t. with 1 µg LPS, BAL after 16 h. As to the method: We therefore also explored the antagonistic capacity of FP13 in a different in vivo model, where LPS and FP13 were both administered locally in the lungs. Intratracheal (i.t.) instillation of LPS is known to cause an acute inflammatory response in mice, characterized by transient infiltration of neutrophils into the airways[57],[58].
PBS and vehicle were administered as controls. Mice were sacrificed 16 h later and neutrophilia in the BAL fluid was measured by flow cytometry. Error bars represent the standard deviation of the mean.

The subject of series [3] is TLR4 signaling in RAW 264.7-Blue cells. As to the kind of experiment: LPS-induced TLR4 signaling in RAW 264.7-Blue cells (SEAP reporter, QUANTI-Blue). In kind it is cell-based, murine. As to the method:
To characterize the effect of synthetic compounds FP13-17 on cells naturally expressing TLR4, we used the murine macrophage RAW 264.7-Blue cell line, which are murine RAW 264.7 macrophages with chromosomal integration of SEAP reporter construct described in the previous section.
Figure 8 Inhibition of LPS-induced TLR4 signaling in RAW 264.7-Blue cells. […] SEAP reporter levels in the cell supernatant were determined by QuantiBlue Assay 24 h later. Error bars represent the standard deviation of the mean of technical triplicates. The graph is representative of at least three independent experiments.
Murine RAW 264.7-Blue cells (Invivogen) derived from the murine RAW 264.7 macrophages and stably expressing an NF-κB-inducible secreted alkaline phosphatase (SEAP) reporter gene were cultured in Dulbecco’s modified Eagle’s medium (DMEM), supplemented with 10% Fetal bovine serum (FBS), L-Glutamine (2 mM) and sodium pyruvate (0.4 mM), in the presence of selection antibiotic Zeocin (200 μg/mL). E. coli O111:B4 LPS was purchased from Invivogen. Bovine serum albumin (BSA) was purchased from Sigma-Aldrich. Compounds FP13-17 were reconstituted in DMSO/ethanol to provide a 10 mM stock solution. […] C57BL6/J mice were obtained from Janvier. […]
[…] 24 h later cell supernatants were analyzed for SEAP production by the QUANTI-Blue Assay (Invivogen).

Details of series [4]: method as in PMID 24339336. Particulars: cited from earlier work.

T1 sequence (O00206 24-839, one chain of several): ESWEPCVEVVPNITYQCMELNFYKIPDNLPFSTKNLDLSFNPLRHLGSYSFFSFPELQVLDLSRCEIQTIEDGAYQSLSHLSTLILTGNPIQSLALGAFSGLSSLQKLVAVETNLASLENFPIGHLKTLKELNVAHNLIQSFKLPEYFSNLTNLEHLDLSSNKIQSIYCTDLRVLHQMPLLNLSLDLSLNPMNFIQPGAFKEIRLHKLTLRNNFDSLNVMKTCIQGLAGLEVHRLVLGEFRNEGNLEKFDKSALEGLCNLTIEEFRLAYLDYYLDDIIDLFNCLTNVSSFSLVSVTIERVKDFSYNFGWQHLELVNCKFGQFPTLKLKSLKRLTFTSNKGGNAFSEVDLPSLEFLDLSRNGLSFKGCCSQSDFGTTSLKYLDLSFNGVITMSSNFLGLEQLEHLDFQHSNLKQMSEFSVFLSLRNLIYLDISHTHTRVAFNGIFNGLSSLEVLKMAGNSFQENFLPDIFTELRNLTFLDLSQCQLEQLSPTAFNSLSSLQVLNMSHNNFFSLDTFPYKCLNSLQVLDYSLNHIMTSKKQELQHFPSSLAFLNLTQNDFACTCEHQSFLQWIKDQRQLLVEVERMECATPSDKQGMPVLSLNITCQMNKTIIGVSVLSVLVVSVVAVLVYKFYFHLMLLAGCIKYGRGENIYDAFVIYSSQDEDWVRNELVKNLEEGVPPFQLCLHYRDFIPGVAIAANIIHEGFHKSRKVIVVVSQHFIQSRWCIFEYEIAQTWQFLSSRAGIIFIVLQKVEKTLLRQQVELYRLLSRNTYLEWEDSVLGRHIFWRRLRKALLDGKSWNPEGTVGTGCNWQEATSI

For the molecule `CCCCCCCC/C=C\CCCCCCCC(=O)N[C@H]1[C@H](OC(=O)CCC(=O)O)O[C@H](CO)[C@@H](OC(=O)CCC(=O)O)[C@@H]1OC(=O)CCCCCCCCCCCCC` [FP15], the IC50 – broadly, the concentration that gives 50% inhibition – on human TLR4 came to 3.5 µM. Also, the affinity at human MD-2 (hMD-2), expressed as Kd, was 14 µM.

Turning to `CCCCC/C=C\C/C=C\CCCCCCCC(=O)N[C@H]1[C@H](OC(=O)CCC(=O)O)O[C@H](CO)[C@@H](OC(=O)CCC(=O)O)[C@@H]1OC(=O)CCCCCCCCCCCCC` [FP16], the IC50 against human TLR4 came out at 6.61 µM. For the same molecule, the affinity at human MD-2 (hMD-2), expressed as Kd, was 21 µM.

The molecule `CCCCCCCC/C=C\CCCCCCCC(=O)N[C@H]1[C@H](OC(=O)CCC(=O)O)O[C@H](CO)[C@@H](OC(=O)CCC(=O)O)[C@@H]1OC(=O)CCCCCCC/C=C\CCCCCCCC` [FP13] came in with an IC50 against human TLR4 of 5.91 µM. The “effect on LPS-induced serum TNFα levels” value in the series on C57BL/6 mice [1] was “did not affect”. The “effect on LPS-induced neutrophil infiltration into the airways” value with C57BL/6 mice [2] was “failed to suppress”. Moreover, the “antagonistic activity in presence of serum” value in series [3] (DMEM supplemented with 10% FBS) is reported as “completely neutralized”. Besides, the “antagonistic activity in presence of BSA” value in series [3] (serum-free with 4 or 20 mg/mL BSA) was “strongly decreased”. In addition, binding at human MD-2 (hMD-2) was put at a Kd of 9 µM.

On human TLR4, `CCCCCCCCCCCCCC(=O)N[C@H]1[C@H](OC(=O)CCC(=O)O)O[C@H](CO)[C@@H](OC(=O)CCC(=O)O)[C@@H]1OC(=O)CCCCCCCCCCCCC` [FP17] yielded an IC50 of 2.7 µM. The Kd (commonly the constant that tells how readily two partners part at equilibrium) at human MD-2 (hMD-2) was found to be 12 µM.

At human TLR4, `CCCCC/C=C\C/C=C\CCCCCCCC(=O)N[C@H]1[C@H](OC(=O)CCC(=O)O)O[C@H](CO)[C@@H](OC(=O)CCC(=O)O)[C@@H]1OC(=O)CCCCCCC/C=C\C/C=C\CCCCC` [FP14] gave an IC50 of 4.35 µM. Also, on human MD-2 (hMD-2), binding was put at a Kd of 35 µM.

Regarding `CCCCCCCCCCCCCC(=O)N[C@H]1[C@@H](OP(=O)(O)O)O[C@H](CO)[C@@H](OP(=O)(O)O)[C@@H]1OC(=O)CCCCCCCCCCCCC` [FP7], the CMC result in series [4] is “about 9 µM”.
